Data published in patent publication US20200308616A1, “PROCESS FOR PRODUCING HIGH PURITY STEVIOL GLYCOSIDES” (PureCircle Sdn Bhd, priority 2015, published 2020).
Read-outs that look alike come from different tables or passages of the source.

What was measured:
[1] = tested on: Kluyveromyces marxianus strain; experiment: Direct assay: quantification of intracellular RebA by LC-MS; format: cell-based
Description: The selected microbial strain was cultivated in a defined mineral medium with RebA as the only carbon source. This medium contained (per liter): 9 g RebA, 5 g (NH4)2SO4, 3 g KH2PO4, 0.5 g MgSO4×7H2O, 15 mg EDTA, 4.5 mg ZnSO4×7H2O, 0.3 mg CoCl2×6H2O, 1 mg MnCl2×4H2O, 0.3 mg CuSO4×5H2O, 4.5 mg CaCl2×2H2O, 3 mg FeSO4×7H2O, 0.4 mg NaMoO4×2H2O, 1 mg H3BO3, 0.1 mg KI, 0.05 mg biotin, 1 mg calcium pantothenate, 25 mg inositol, 1 mg thiamine HCl, 1 mg pyridoxine HCl, 0.2 mg para-aminobenzoic acid. A volume of 20 mL culture medium was inoculated with a single colony. All cultivations were performed in 25 mL culture medium in a 300 mL non-baffled shake flask on a laboratory shaker with 250 rpm and 2.5 cm shaking diameter at 28° C. for 72 h. The complete culture was transferred to a beaker containing 125 mL of a solution containing 45 ppm 4-Nitrophenyl β-D-glucopyranoside in 60% methanol in water that was pre-cooled to −40° C. The mixture was then transferred to three 50 mL centrifugation tubes that were pre-cooled on dry ice and centrifuged below 0° C. at 4248 g for 10 min. Subsequently, an aliquot of the supernatant (quench) was stored at −80° C. and the rest of the supernatant was discarded, while the pellet was kept on dry ice. Then 5 mL 60% methanol in water pre-cooled on dry ice was used to re-suspend the 3 pellets. The re-suspended pellets were transferred to a single 15 mL centrifugation tube precooled on dry ice and centrifuged below 0° C. at 4248 g for 10 min. Then the supernatant was discarded and the pellet was re-suspended in fresh 5 mL 60% methanol in water pre-cooled on dry ice and the suspension was centrifuged below 0° C. at 4248 g for 10 min. Then the supernatant was discarded and the pellet was re-suspended again in fresh 5 mL 60% methanol in water pre-cooled on dry ice and the suspension was centrifuged below 0° C. at 4248 g for 10 min. […] The concentration of RebA in quench, wash, and cell extract was quantified by LC-MS (FIG. 2), in which the error bars indicate the standard error of mean from 2 parallel experiments.

[2] = tested on: gut microbiome; conditions: cited from earlier work
[3] = tested on: microbial strains; experiment: Indirect assay: growth with RebA as the only carbon source and RebA degradation by the soluble fraction of the cell extract; format: cell-based; conditions: defined mineral medium, 10 g/L RebA as only carbon source, 28° C., 72 h; 19 microbial strains
Description: Microbial strains were assayed for their ability to assimilate RebA from the culture medium by growing the strains in a defined mineral medium with RebA as the only carbon source.
This medium contained (per liter): 10 g RebA, 5 g (NH4)2SO4, 3 g KH2PO4, 0.5 g MgSO4×7H2O, 15 mg EDTA, 4.5 mg ZnSO4×7H2O, 0.3 mg CoCl2×6H2O, 1 mg MnCl2×4H2O, 0.3 mg CuSO4×5H2O, 4.5 mg CaCl2×2H2O, 3 mg FeSO4×7H2O, 0.4 mg NaMoO4×2H2O, 1 mg H3BO3, 0.1 mg KI, 0.05 mg biotin, 1 mg calcium pantothenate, 25 mg inositol, 1 mg thiamine HCl, 1 mg pyridoxine HCl, 0.2 mg para-aminobenzoic acid. A volume of 1 mL culture medium was inoculated with 10 μl of an overnight culture grown.
All cultivations were performed in 96 square well plates on a laboratory shaker with 300 rpm and 5.1 cm shaking diameter at 28° C. for 72 h. Growth was monitored by mixing 50 μL or culture volume with 50 μL ethanol in a 96 well plate and subsequently measuring the optical density at 600 nm (OD600) in a spectrophotometer (Molecular Devices). […]
Then, 70 μL of a 2 g/L RebA solution was added to the soluble fraction before incubation at 72 h at 28° C. RebA was detected by LC-MS set to single ion monitoring (SIM) mode, negative mode, m/z=965.60.
The difference in RebA concentration between the start and the end of the incubation was calculated for each soluble fraction. […]

Row | Structure (SMILES) | concentration of RebA in the cell extract versus quench and wash solutions ([1]; 9 g/L RebA as only carbon source, 72 h, LC-MS, FIG. 2, 2 parallel experiments) | concentration of RebA in the wash solution versus quench solution ([1]; LC-MS, FIG. 2) | intracellular accumulation of RebA ([1]; conclusion from cell extract versus quench and wash concentrations) | degradation by the gut microbiome [2] | assimilation of RebA from the culture medium [3] | degradation by the gut microbiome ([2]; Gardana et al., 2003)
1 | C=C1C[C@@]23CC[C@H]4[C@@](C)(CCC[C@@]4(C)C(=O)O[C@@H]4O[C@H](CO)[C@@H](O)[C@H](O)[C@H]4O)[C@@H]2CC[C@]1(O[C@@H]1O[C@H](CO)[C@@H](O)[C@H](O[C@@H]2O[C@H](CO)[C@@H](O)[C@H](O)[C@H]2O)[C@H]1O[C@@H]1O[C@H](CO)[C@@H](O)[C@H](O)[C@H]1O)C3 [RebA, Rebaudioside A] | exceeds that in the quench and wash solutions | higher than in the quench solution | accumulated intracellularly | glucose residues are cleaved off | found to assimilate RebA | 
2 | C=C1C[C@@]23CC[C@H]4[C@@](C)(CCC[C@@]4(C)C(=O)O)[C@@H]2CC[C@]1(O)C3 [steviol] |  |  |  |  |  | not metabolized further
